# Data as given in patent publication US20100216693A1, “COMPOSITIONS AND METHODS OF TREATING DIABETES” (priority 2005, published 2010).
# Where two headings read alike, the source gives them in different places.
# How the values were obtained:
# [1] = target: T1, insulin-insulin interaction (Homo sapiens, UniProt P01308); experiment: SPR: effect of substances mixed with insulin in solution on insulin-insulin interaction; assay type: binding; conditions: for effect of additive on insulin-insulin interaction: pH 5, insulin 10 μM, zinc sulfate in molar ratios higher than insulin, EDTA up to 10 μM
# T1 construct: 28; purchased Novo Nordisk A/S, Denmark Actrapid
# Experimental: BiacorA Biacore 3000 instrument was employed for the interaction measurements based on surface plasmon resonance (SPR). Interaction analyses were performed at 25° C. in 10 mM Na-citrate buffers pH 3, 4, 5, 10 mM bis-Tris, pH 6, and 10 mM Tris/HC1, pH 7, all buffers containing 100 mM NaCl and 0.005% 5P20. Flow rates for the binding analyses were kept at 20 μl/min. […] Insulin was immobilized on a carboxymethyl-modified dextran surface via both amine and carboxyl coupling, using the surface thiol method, in two different lanes of Biacore CM5 chips. The immobilization was carried out according to the procedure described in the kits. In brief, the sensor chip surface was first washed with 4 M LiCl/HBS for 1 min and then with 0.2% SP20/HBS for 1 mM. The surface was activated according to standard procedure with an injection of 0.05 M NHS/0.2 M EDC for 7 min. Desalted insulin solution was diluted in acetate buffer, pH 4.5, to 20 μg/ml and injected at 50/min for different time intervals. For surface thiol coupling, the surface was first activated with 0.05 M NHS/0.2 M EDC for 2 min followed by a 3 min injection of 40 mM cystamine dihydrochloride and then 0.1 M DTE for 3 min. […] The mixture was incubated for 10 mM at room temperature and excess PDEA was removed on a NAP-10 column. The purified PDEA ligand was injected for 7 min, soon after DTE, and finally the surface was washed with 20 mM PDEA in 0.1 M sodium acetate, 1.0 M NaCl. For quick regeneration of the surface, 2 M guanidine-HC1, pH 6.4, was employed. For controls, lanes activated and deactivated according to the standard procedures were used. For subtraction of noise from the data, running buffer only was injected to all surfaces. For the C-terminal attachment, surface-thiol coupling to 4000-5000 RU was used, and for N-terminal attachment, amine coupling to 800-1000 RU as achieved on different CM5 chips. However for kinetic analysis immobilization was carried out in a controlled condition and around 1000 RU for C-terminal and 400 RU for N-terminal coupling were immobilized. A surface activated with EDC/NHS and deactivated with ethanolamine was used as a control surface for N-terminally immobilized insulin and a surface treated with EDC/NHS, cysteine/DTE and finally deactivated with PDEA-NaCl was used as a control for C-terminally immobilized insulin. Biacore data were analyzed with Bia-evaluation software 4.1. All calculations based on numerical approaches, including simulations and global curve fitting for estimates of active concentrations, were performed with IGOR Pro (version 4.01.A, WaveMetrics, Inc.). However, C-peptide, mixed with insulin in solution, influences the insulin-insulin monomer interactions measured above. […] This elevated interaction can be seen at different pH from 3-7. The phenomenon of more pronounced interaction was clearer when concentrations higher than 0.5 μM were used then below 0.5 μM. […] All concentrations were run in triplicates and in random order.
# immobilized insulin = target: T2, immobilized insulin (Homo sapiens, UniProt P01308); experiment: SPR (Biacore 3000) insulin-insulin interaction, free insulin over chip-immobilized insulin; assay type: binding; conditions: for Kd: C-terminally immobilized insulin, global fit, analyte with two binding sites competing for one site, insulin 0.25-10 μM
# T2 construct: 28; purchased Novo Nordisk A/S, Denmark Actrapid
# Experimental: BiacorA Biacore 3000 instrument was employed for the interaction measurements based on surface plasmon resonance (SPR). Interaction analyses were performed at 25° C. in 10 mM Na-citrate buffers pH 3, 4, 5, 10 mM bis-Tris, pH 6, and 10 mM Tris/HC1, pH 7, all buffers containing 100 mM NaCl and 0.005% 5P20. Flow rates for the binding analyses were kept at 20 μl/min. Insulin was desalted and buffer was exchanged on NAP 10 columns from Amersham Biosciences.
# Working insulin solution was prepared after removing the excess of zinc sulfate, meta-cresol and other salts from the original solution by passing through a NAP 10 column in the desired buffer for experiments. The desalted insulin was diluted to 1 mM, aliquoted and stored at −20° C.
# Insulin was immobilized on a carboxymethyl-modified dextran surface via both amine and carboxyl coupling, using the surface thiol method, in two different lanes of Biacore CM5 chips. The immobilization was carried out according to the procedure described in the kits. In brief, the sensor chip surface was first washed with 4 M LiCl/HBS for 1 min and then with 0.2% SP20/HBS for 1 mM. The surface was activated according to standard procedure with an injection of 0.05 M NHS/0.2 M EDC for 7 min. Desalted insulin solution was diluted in acetate buffer, pH 4.5, to 20 μg/ml and injected at 50/min for different time intervals. For surface thiol coupling, the surface was first activated with 0.05 M NHS/0.2 M EDC for 2 min followed by a 3 min injection of 40 mM cystamine dihydrochloride and then 0.1 M DTE for 3 min. At the same time, 2-(2-pyridinyldithio)ethaneamine hydrochloride (PDEA) insulin was prepared by dissolving 0.5 mg insulin in 0.5 ml 0.1 M MES, adding to it 0.25 ml of (15 mg/ml) PDEA in 0.1 M MES, pH 5, and 25 μl 0.4M EDC. The mixture was incubated for 10 mM at room temperature and excess PDEA was removed on a NAP-10 column. The purified PDEA ligand was injected for 7 min, soon after DTE, and finally the surface was washed with 20 mM PDEA in 0.1 M sodium acetate, 1.0 M NaCl. For quick regeneration of the surface, 2 M guanidine-HC1, pH 6.4, was employed. For controls, lanes activated and deactivated according to the standard procedures were used. For subtraction of noise from the data, running buffer only was injected to all surfaces.
# For the C-terminal attachment, surface-thiol coupling to 4000-5000 RU was used, and for N-terminal attachment, amine coupling to 800-1000 RU as achieved on different CM5 chips. However for kinetic analysis immobilization was carried out in a controlled condition and around 1000 RU for C-terminal and 400 RU for N-terminal coupling were immobilized. […]
# Biacore data were analyzed with Bia-evaluation software 4.1. […]
# insulin = target: T3, insulin (Homo sapiens, UniProt P01308); experiment: Non-denaturing nano-electrospray mass spectrometry of insulin, C-peptide and control peptides; assay type: binding; conditions: ESI-MS
# T3 construct: 28; purchased Novo Nordisk A/S, Denmark Actrapid
# Experimental: For mass spectrometric analysis, preparation of concentrated insulin stock solution was performed essentially as described [Nettleton et al, 2000, Biophys J. 79:1053]. Briefly, insulin (NovoNordisk A/S, Denmark) was concentrated to 100 μM using ultrafiltration spin-filters (NanoSep, PallGellman, MWCO: 3000 Da). This stock solution was then buffer-exchanged to water, pH 5 (HCl), by extended dialysis. For all experiments, insulin and C-peptide stock solutions were diluted in water-HC1 (pH 5) to reach the indicated concentrations. C-peptide was prepared as a 746 μM stock solution in water and all control peptides were prepared similarly.
# Mass spectrometry data were recorded with a QTOF Ultima API instrument (Waters, Milford, Mass.) operated in the positive ion mode. Sample solutions were analyzed by nanoelectrospray from conductive borosilicate glass capillaries (Proxeon Biosystems A/S, Odense, Denmark). Instrument settings were not modified for the observation of non-covalent complexes, other than that the “cone” and the “RF-lens” settings were set to 90 and 50 V, respectively.
# The binding between insulin and C-peptide in the gas-phase was studied by non-denaturing electrospray mass spectrometry using a method analogous to that of Nettleton et al [Nettleton et al, 2000, Biophys J. 79:1053].
# [2] = s.c. injection of C-peptide plus soluble insulin (CI-day) vs insulin plus diluent (I-day), glucose clamp, Type 1 diabetic patients; assay type: in vivo, human
# Experimental: Apart from insulin they had no other medication. All patients received injections of soluble insulin before meals and intermediate-acting insulin at bedtime. Six patients had simplex retinopathy and two of these (nos. 4 and 8) also had microalbuminuaria. All subjects were informed of the purpose, nature and possible risks before giving their consent to participate in the study, which was approved by the local Ethics Committee. The experiments were carried out on two days separated by at least one week. The patients were admitted to the hospital at 8 p.m. in the evening before the study day. They received their last dose of insulin at 4-6 p.m. In order to clear the subcutaneous depots of insulin no intermediate-acting insulin was given at bedtime. Instead, an intravenous infusion of insulin was started at the time of admission. […] On the study day the investigation started at 7.30 a.m. after an overnight fast. A short teflon catheter was inserted into an antecubital vein for blood sampling. […] The injections were given with an automatic injection device (which allowed standardization of speed and depth) approximately 100 mm lateral to the umbilicus into the middle of the subcutaneous tissue, the depth of which was predetermined with ultrasound. After the injections plasma glucose was allowed to decrease to 3.5 mmol/l, whereafter it was maintained at 3.5-5 mmol/l using a variable glucose infusion (DeFronzo R, Tobin J, Andres R, American Journal of Physiology 237:[…]-[…], 1979) The patients were followed for 6 hours. Blood samples for the determination of plasma glucose, free insulin, C-peptide, FFA and glucagon were taken at timed intervals. […] Plasma free insulin was determined by radioimmunoassay after immediate polyethylene glycol precipitation (Arnquist H, Olsson P, von Schenk H, Clinical Chemistry 33:93-96, 1987). C-peptide (Heding L, Diabetologia 11:541-548, 1975) and glucagon were also analyzed by radioimmunoassay using a commercially available kit (MILAB, Malmö, Sweden). Plasma […], Greenberg […], Goetz F, Metabolism 35:122-125, 1986) was determined by a fluorometric method. Standard statistical methods including Wilcoxon's nonparametric test, Student's paired t-test and linear regression analyses were performed when applicable. Results are presented as mean values±SEM. […] The areas under the plasma insulin, and free fatty acid concentration curves were computed by trapezoidal integration.
# [3] = in vivo; cited from earlier work
# T2 sequence (P01308 25-54 limits assumed): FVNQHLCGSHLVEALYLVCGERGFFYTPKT
# T2 sequence (P01308 90-110 limits assumed): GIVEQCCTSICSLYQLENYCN
# T1 sequence (P01308 25-54 limits assumed): as the sequence (P01308 25-54 limits assumed) above
# T3 sequence (P01308 25-54 limits assumed): as above
molecule,measurement,setting,value
O=C(O)CN(CCN(CC(=O)O)CC(=O)O)CC(=O)O [EDTA],effect of additive on insulin-insulin interaction,[1],promoted insulin-insulin interaction
O=S(=O)([O-])[O-].[Zn+2] [zinc sulfate],effect of additive on insulin-insulin interaction,[1],diminished insulin interaction
"C-terminal pentapeptide: pentapeptide EGSLQ (SEQ ID NO. 2), residues 27-31 of native human C-peptide (Pentapeptide of C-peptide)",enhancement of insulin-insulin binding relative to native C-peptide,[1]; 1:1 molar ratio (FIG. 15),as equally effective as the native C-peptide
same,stimulation of SPR-measurable binding in mixture with insulin in the flow-through solution,[1]; Example 10,stimulated SPR-measurable binding
Human insulin,Kd,immobilized insulin; read-out: dissociation constant KD1 (slow off rate),2.71 µM
same,Kd,immobilized insulin; read-out: dissociation constant KD2 (rapid off rate),4.65 µM
same,lowest insulin solution concentration at which binding is noticeable,immobilized insulin; pH 5,0.05 µM
same,pH of highest (maximum) insulin-insulin binding interaction,immobilized insulin; pH range 3-7,5
same,insulin concentration at which dimerization is detectable,insulin,3 µM
same,insulin concentration at which higher polymers up to hexamers are detectable,insulin,30 µM
"I: soluble insulin (Humulin; 10U) and C-peptide diluent, injected s.c.",AUC for plasma FFA concentration 0-360 min,[2]; 0-360 min,129 ± 17 mmol·min/L
same,plasma FFA 10 min after the injections,[2]; 30 min after cessation of i.v. insulin infusion,0.80 ± 0.11 mmol/L
same,AUC for plasma FFA concentration 0-180 min,"[2]; after correction for the plasma free insulin area, p<0.01",55.6 ± 5.1 mmol·min/L
same,area under the plasma IRI curve (0-360 min),"[2]; human, in vivo",5847±430 mU/l×min
same,plasma glucose at the beginning of the glucose infusions,"[2]; human, in vivo",3.5 ± 0.05 mmol/L
same,plasma C-peptide at 360 min,[2]; mean±SEM,0.10 ± 0.02 nmol/L
same,patients requiring intravenous infusion of glucose to avoid hypoglycemia,[2]; nine patients,7 of 9
same,time of peak plasma insulin (IRI),[2]; s.c. insulin 10 U,88 ± 11 min
same,duration of glucose infusion,[2]; variable glucose infusion to avoid hypoglycemia,124 ± 28 min
Insulin Glulisine,action / pharmacokinetic profile compared with other rapid acting analogues,[3],pharmacokinetic profile similar to Lispro and Aspart
Lispro,effective duration,[3],4 to 6 h
same,onset of action,[3],5 to 15 min
same,peak action,[3],0.5 to 1.5 h
regular insulin: regular human insulin,effective duration,[3],8 to 10 h
same,onset of action,[3],30 to 60 min
same,peak action,[3],2 to 3 h
"zinc insulin (Lente): human insulin preparation, zinc insulin, with extended duration",effective duration,[3],12 to 20 h
same,onset of action,[3],120 to 240 min
same,peak action,[3],4 to 10 h
